Compound: CC1=C(CC(=O)O)c2cc(F)ccc2/C1=C\c1ccc([S+](C)[O-])cc1 [Sulindac] + CS(=O)(=O)N1CCN(Cc2cc3nc(-c4cccc5[nH]ncc45)nc(N4CCOCC4)c3s2)CC1 [Pictilisib] (partner 1 µM)
Assay: relative viability (nuclei count vs DMSO), 5 days (fraction); higher = more cells survive
In short: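 Cells from lung cancer lines were seeded into 1536-well plates and, one day later, dosed by pin tool. Treatments were either a single drug or a fixed dose of an anchor drug with five library-drug doses (not always all listed) in √10 steps. After 5 days, nuclei were stained in a one-step fixation (final 0.05% Triton X-100, 1% formaldehyde, 1 ug/ml Hoechst) and counted on 4× images, and relative viability is the treated-to-vehicle nuclei ratio, as the median of duplicate plates.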

## UMC-11
First compound 0.08 µM
  relative viability: 1.18
First compound 0.253 µM
  relative viability: 0.816
First compound 0.8 µM
  relative viability: 0.704
First compound 2.53 µM
  relative viability: 0.667
First compound 8 µM
  relative viability: 0.793

Reference: the supplement of paper PMC10307832
